Consider 9 molecules from US11472808B2, “Substituted pyrrolo[1,2-c]pyrimidines as hepatitis B antiviral agents” (Enanta Pharmaceuticals, Inc., priority 2019, dated 2022).

For one data set, the system named is HBV. The experiment in a line: HepAD38 anti-HBV assay: reduction of viral product accumulation (virion DNA qPCR, HBsAg/HBeAg ELISA). It counts as cell-based. The following applies: Hepatitis B virus, 120 h; HepAD38 cells; concentration reducing viral product accumulation by 50% relative to no drug controls; harvest five days after compound addition; read-out: HepAD38 EC50. The gist of the method: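 Tetracycline-free HepAD38 cells treated 5 days with compound (1:200 DMSO dilution), or 8 days with media and compound refreshed on d2 and d5. Virion DNA quantified by qPCR; HBsAg or HBeAg by ELISA. EC50 is the concentration reducing viral product accumulation 50% versus no-drug controls.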

The nature of data set [1]: Compound toxicity, ATPLite total ATP levels. To be noted: human, HepG2 cells; concentration reducing total ATP levels by 50% relative to no drug controls; ATPLite three days after compound addition. It counts as cell-based. On the procedure: Compound toxicity is evaluated by seeding cells at 15,000 cells/well and treating with compound as described above.
Background: ATP-based viability assays read luminescence as a measure of living cells.

With `O=S(=O)(N[C@H]1CC2=C(c3ccn(C(F)F)n3)[C@H](c3ccc(F)cc3Cl)N=C(c3nccs3)N2C1)N1C[C@@H](F)[C@@H](F)C1` [Example 274], in the data set with HBV, the EC50 – broadly, the concentration needed to bring the measured effect to its halfway point – is under 0.1 µM. In data set [1], the CC50 (commonly the concentration that lowers cell viability or growth by half) at 3 days is under 10 µM.

In the case of `O=S(=O)(N[C@H]1CC2=C(c3ccn(C(F)F)n3)[C@H](c3ccc(F)cc3Cl)N=C(c3nccs3)N2C1)N[C@H]1CC[C@@H](O)CC1` [Example 154], the EC50 in the data set with HBV is under 0.1 µM. This molecule also returned a CC50 at 3 days in data set [1] of over 25 µM.

Consider `Cc1ccc(S(=O)(=O)N[C@H]2CC3=C(c4ccn(C(F)F)n4)[C@H](c4ccc(F)cc4Cl)N=C(c4nccs4)N3C2)cn1` [Example 401], for which the EC50 in the data set on HBV was under 0.1 µM. In data set [1], the CC50 at 3 days was over 25 µM.

As for `O=C1CCCN1C1CCN(S(=O)(=O)N[C@H]2CC3=C(c4ccn(C(F)F)n4)[C@H](c4ccc(F)cc4Cl)N=C(c4nccs4)N3C2)CC1` [Example 293], in the data set with HBV, the EC50 was under 0.1 µM. In data set [1], the CC50 at 3 days is over 25 µM.

In the case of `O=S(=O)(N[C@H]1CC2=C(c3ccn(C(F)F)n3)[C@H](c3ccc(F)cc3Cl)N=C(c3nccs3)N2C1)N1CCC(O)CC1` [Example 75], the EC50 in the data set with HBV was under 0.1 µM. The same molecule yielded a CC50 at 3 days in data set [1] of over 25 µM.

For `CC(C)C[C@H](NS(=O)(=O)N[C@H]1CC2=C(c3ccn(C(F)F)n3)[C@H](c3ccc(F)cc3Cl)N=C(c3nccs3)N2C1)c1ccccn1` [Example 359], the EC50 in the data set with HBV was under 0.1 µM. In data set [1], the CC50 at 3 days is over 25 µM.

Turning to `O=S(=O)(N[C@H]1CC2=C(c3ccn(C(F)F)n3)[C@H](c3ccc(F)cc3Cl)N=C(c3nccs3)N2C1)[C@H]1CC[C@@H](O)CC1` [Example 99], the EC50 in the data set with HBV is under 0.1 µM. In addition, the 50% cytotoxic concentration (CC50) at 3 days in data set [1] is over 25 µM.

For `O=S(=O)(N[C@H]1CC2=C(c3ccn(C(F)F)n3)[C@H](c3ccc(F)cc3Cl)N=C(c3nccs3)N2C1)[C@H]1CC[C@](O)(CO)CC1` [Example 100], the EC50 in the data set on HBV was under 0.1 µM. This molecule yielded a CC50 at 3 days in data set [1] of over 25 µM.

Take `O=S(=O)(N[C@H]1CC2=C(c3ccn(C(F)F)n3)[C@H](c3ccc(F)cc3Cl)N=C(c3nccs3)N2C1)c1ccc(Br)cc1` [Example 389]: the EC50 in the data set with HBV is under 0.1 µM. Besides, in data set [1], the cytotoxic concentration (CC50) at 3 days is over 25 µM.
